Active and inactive are the calls of the source. The rule behind the calls is not given here.
Experiments:
[1] = Induction of thermotropic behavior changes in dimyristoylphosphatidylcholine multilamellar vesicles assessed as reduction in enthalpy of phase transition at 0.15 molar fraction by differential scanning calorimetry; set-up: scale not given: the % may be the effect or the level left
[2] = Pro-oxidant activity in hydrophilic medium by crocin bleaching assay; type: functional
[3] = Induction of thermotropic behavior changes in dimyristoylphosphatidylcholine multilamellar vesicles assessed as reduction in enthalpy of phase transition at 0.09 molar fraction by differential scanning calorimetry; set-up: scale not given: the % may be the effect or the level left
[4] = Induction of thermotropic behavior changes in dimyristoylphosphatidylcholine multilamellar vesicles assessed as reduction in enthalpy of phase transition at 0.03 molar fraction by differential scanning calorimetry; set-up: scale not given: the % may be the effect or the level left
[5] = Induction of thermotropic behavior changes in dimyristoylphosphatidylcholine multilamellar vesicles assessed as changes in pre-transition peak at 0.015 to 0.15 molar fraction by differential scanning calorimetry
[6] = Drug absorption in dimyristoylphosphatidylcholine multilamellar vesicles at 0.09 molar fraction by differential scanning calorimetry; type: physicochemical
[7] = Induction of thermotropic behavior changes in dimyristoylphosphatidylcholine multilamellar vesicles assessed as reduction in enthalpy of phase transition at 0.06 molar fraction by differential scanning calorimetry; set-up: scale not given: the % may be the effect or the level left
[8] = Induction of thermotropic behavior changes in dimyristoylphosphatidylcholine multilamellar vesicles assessed as reduction in enthalpy of phase transition at 0.015 molar fraction by differential scanning calorimetry; set-up: scale not given: the % may be the effect or the level left
[9] = Pro-oxidant activity in lipophilic medium containing linoleic acid by crocin bleaching assay; type: functional
[10] = Induction of thermotropic behavior changes in dimyristoylphosphatidylcholine multilamellar vesicles assessed as reduction in transition temperature at 0.015 to 0.15 molar fraction by differential scanning calorimetry
[11] = Induction of thermotropic behavior changes in dimyristoylphosphatidylcholine multilamellar vesicles assessed as reduction in cooperativity among phospholipid molecules by measuring peak width at half height at 0.015 to 0.15 molar fraction by differential scanning calorimetry
[12] = Antioxidant activity assessed as inhibition of AAPH-induced crocin oxidation in hydrophilic medium at 5 to 500 uM by crocin bleaching assay; type: physicochemical
[13] = tested on: Lipid bilayer; assay: Binding affinity to external surface of dimyristoylphosphatidylcholine multilamellar vesicles at 0.09 molar fraction by differential scanning calorimetry
[14] = Induction of thermotropic behavior changes in dimyristoylphosphatidylcholine multilamellar vesicles assessed as changes in main transition peak at 0.015 to 0.15 molar fraction by differential scanning calorimetry
[15] = Induction of thermotropic behavior changes in dimyristoylphosphatidylcholine multilamellar vesicles assessed as reduction in enthalpy of phase transition at 0.045 molar fraction by differential scanning calorimetry; set-up: scale not given: the % may be the effect or the level left
[16] = tested on: Lipid bilayer; assay: Induction of thermotropic behavior changes in dimyristoylphosphatidylcholine multilamellar vesicles assessed as reduction in enthalpy of phase transition at 0.12 molar fraction by differential scanning calorimetry; set-up: scale not given: the % may be the effect or the level left
[17] = Drug absorption in dimyristoylphosphatidylcholine multilamellar vesicles at 0.045 molar fraction using lipophilic medium as carrier by differential scanning calorimetry; type: physicochemical; conditions: octanol/water
[18] = Induction of thermotropic behavior changes in dimyristoylphosphatidylcholine multilamellar vesicles assessed as reduction in enthalpy of phase transition at 0.015 to 0.15 molar fraction by differential scanning calorimetry
[19] = Antioxidant activity assessed as inhibition of AAPH-induced crocin oxidation at 5 to 500 uM in lipophilic medium containing linoleic acid by crocin bleaching assay; type: physicochemical

| Activity [1] [%] | Activity [3] [%] | Activity [4] [%] | Activity [5] | Drug uptake [6] | Activity [7] [%] | Activity [8] [%] | Activity [10] | Activity [11] | Activity [12] | Activity [13] | Activity [14] | Activity [15] [%] | Activity [16] [%] | Drug uptake [17] | Activity [18] | Activity [19] | SMILES | Activity [2] | Activity [9] |
| --- | --- | --- | --- | --- | --- | --- | --- | --- | --- | --- | --- | --- | --- | --- | --- | --- | --- | --- | --- |
| 74.1 | 79.5 | 96 | Active | Active | 91.7 | 95 | Dose-dependent effect | Dose-dependent effect | Active | Active | Active | 98.3 | 71.2 | Active | Dose-dependent effect | Active | CCCCCC/C(C=O)=C\c1ccccc1 | inactive | inactive |
| – | – | – | – | – | – | – | – | – | Active | – | – | – | – | – | – | Active | Cc1c(C)c2c(c(C)c1O)CCC(C)(C(=O)O)O2 (stereo unspecified) [TROLOX] | – | – |

— ChEMBL document CHEMBL3580544, “Interaction of α-Hexylcinnamaldehyde with a Biomembrane Model: A Possible MDR Reversal Mechanism” (J Nat Prod, 2015)
